Reference: US12187758B2 (ROME Therapeutics, Inc., priority 2022, dated 2025)

Columns and labels:
[1] = tested on: THP1-Dual KO-TREX1 xenograft tumors; assay: Altering IFN production in THP1 TREX1 KO xenografts; type: in vivo, CB-17 SCID female mice; conditions: decitabine 5 mg/kg IP, test compound 10, 30, or 100 mg/kg PO once daily for 4 days; tumors 24 h post-last dose; FIG. 6
Method: Exemplary compounds 2, 25 and 40 were tested for their ability to alter IFN levels in THP1-Dual™ KO-TREX1 xenografts in mice. Assay procedures are described below.
CB-17 SCID female mice were inoculated subcutaneously with 10 million THP1-Dual™ KO-TREX1 cells in 200 μl PBS with Matrigel (1:1) and grouped when tumor volume reached 350-400 mm^3. Mice bearing THP1-Dual™ KO-TREX1 xenograft tumors were then separated into 5 groups. Three groups were administered: (1) decitabine (DAC) at 5 mg/kg IP, once daily, for 4 days, and (2) test compound at 10, 30, or 100 mg/kg, PO, once daily, for 4 days. One group was administered decitabine (DAC) at 5 mg/kg IP, once daily, for 4 days, and the test compound vehicle control. The final group was administered the vehicle control from both the test compound and the vehicle control from decitabine. Decitabine is formulated in sterile PBS, pH 7.4, and Compound 2, 25, and 40 were formulated in 20% PEG400 in PBS.
Tumors were harvested 24 h post-last dose administered on day 4, ground in PBS at 50 Hz for 5 min, and kept on ice for 30 min while being vortexed every 5 min. […] Equal amounts of proteins were added to 96-well black plates, and luciferase signal was measured using the QUANTI-Luc™ detection medium according to manufacturer's instructions. Luminescence was measured using the EnVision® 2105 Multimode Plate Reader. […]

[2] = tested on: human PBMC; assay: Decitabine-stimulated human PBMC assay; type: cell-based; conditions: PBMCs, 5 days; for IFN-β production: anti-CD3/anti-CD28, decitabine 10 μM, FIGS. 3A and 3B
Method: EasySep buffer (32 mL, […] Technologies, cat. #20144) was used to dilute 8 mL of LRSC buffy coat (from fresh Leukopak) with gentle mixing. The diluted buffy coat (20 mL) was transferred into each of two SepMate 50 tubes, and the tubes were filled with 15 mL of Lyphoprep ([…], cat. #07851) density gradient. The SepMate tubes were then centrifuged at 1200 G for 10 minutes at room temperature with the brake on. The top layer of supernatant was collected in SepMate tubes by quickly pouring it into a new 50 mL conical tube. The PBMCs were washed with EasySep buffer×2 by centrifuging at 300 G for 5 minutes. The cells were resuspended in 30 mL of EasySep and centrifuged at 100 G for 5 minutes with the brake off, and the platelets were removed. The cells were then resuspended in 6 mL of 1×RBC lysis buffer (Invitrogen) and incubated at 37° C. for 5 minutes. 25 mL of EasySep buffer was then mixed into the tube and centrifuged at 300 G for 5 minutes. The cells were resuspended in 10 mL of EasySep buffer and the cells were then counted with Cellometer (AO/PI). The PBMCs were resuspended in RPMI1640 (ThermoFisher)+ 10% FBS (HyClone)+μ/s at 3×10^6/mL. The PBMCs (100 μL, 300 k PBMCs) were then seeded in a 96-well flat bottom microplate (Corning) that had been precoated with 100 μL of anti-CD3 antibody (10 μg/mL in PBS, Biolegend) or PBS at 4° C., one day before the assay was commenced.
To each well the following solutions were added 1) 100 μL of cells (final cell number per well is 3×10^5 cell/well); 2) 25 μL of anti-CD28 antibody at 6× (5 μg/mL final concentration, Biolegend); 3) 25 μL of decitabine at 6× (10 μM final concentration); and 4) Compound in DMSO was dispensed directly into each well with a d300e digital dispenser (Tecan). The final concentration of DMSO for each well was normalized to 0.3%. The plate was incubated at 37° C. without any agitation for 5 days. Samples were collected 120 hours after incubation to determine IFN-β […] levels using a U-PLEX Human IFN-β Assay Sector (5PL) (MSD, cat. #K151VIK-2).
After 5 days, the plate was spun down at 100×G for 5 minutes. Supernatants (100 μL) were collected for interferon R (IFN-0) analysis using the MSD assay noted above, and any residual supernatant was stored at −80° C.

[3] = tested on: interferon-stimulated gene (ISG) response; assay: In vivo decitabine challenge model in BALB/c mice; conditions: decitabine i.p. 5 mg/kg, RNAseq
Method: Thirty 9-11 week old BALB/c mice were acclimated to the lab for at least 5 days. Compounds 2, 40 and 67 were prepared in a 20% PEG400 (pH 3.5) solution for p.o. administration, compounds were prepared no more than 30 minutes prior to daily dosing. Decitabine (Sigma) was dissolved in sterile PBS (pH 7.4) and dosed within 30 minutes of preparation of the solution. Doses of both the compound and decitabine were administered once a day, every day from Day 0 to day 4. On Day 0, mice were split into […] of five mice and given their first dose of decitabine (i.p., 5 mg/kg) and compound. Dosing groups were as in the following table (all doses in mg/kg): [table] Decitabine (i.p., 5 mg/kg) and compounds 2, 40 or 67 were administered daily from […] to Day 4. All mice were euthanized 1 hour after the last dose administration on Day 4. Spleen and kidneys were harvested and snap frozen in liquid nitrogen, and plasma (EDTA) was collected for bioanalysis. Total RNA was isolated using the PureLink RNA Mini Kit (ThermoFisher) and prepared for RNAseq using the TruSeq Stranded mRNA platform (Illumina). 50M Stranded reads were collected on an Illumina HiSeq system. Data were analyzed as follows: RNA sequencing reads were aligned to the […] reference genome using the STAR RNA-seq aligner (Dobin et al., 2013). Expression of each transcript was quantified using Salmon (Patro, et al. 2015) TPM values for each transcript. These transcript-level TPM values were aggregated by gene to get gene-level TPM values, and log-transformed these values. Mouse orthologs for each gene in the list of ISG-associated genes in the human genome from Liu et al., 2019 using Ensembl BioMart (Kinsella et al., 2011) were identified. The ISG score for each sample was calculated as the median log-transformed TPM value across all genes in this ISG gene set.

Compound | inhibition of DAC-induced IFN signal in THP1 tumors [1] | IFN-β production [2] | change in the ISG Score in the spleen and kidney ([3]; compound 100 mg/kg p.o. daily) | change in the ISG Score in the spleen and kidney ([3]; compound 30 mg/kg p.o. daily) | cell viability ([2]; decitabine 10 μM)
Nc1ccn([C@H]2C[C@H](O)[C@](CO)(CCl)O2)c(=O)n1 [Compound 2, 4-amino-1-((2R,4S,5R)-5-(chloromethyl)-4-hydroxy-5-(hydroxymethyl)tetrahydrofuran-2-yl)pyrimidin-2(1H)-one] | potent inhibition of DAC-induced IFN signal | showed inhibition of IFN-β | show a change in the ISG Score in the spleen and kidney | – | –
C#C[C@]1(CO)O[C@@H](n2cnc3c(N)nc(Cl)nc32)C[C@@H]1O [Compound 25] | – | activated production of IFN-β | – | – | –
Nc1nc(=O)n([C@@H]2O[C@@](CO)(CCl)[C@@H](O)[C@@H]2F)cc1F [Compound 67, 4-amino-1-[(2R,3S,4R,5R)-5-(chloromethyl)-3-fluoro-4-hydroxy-5-(hydroxymethyl)oxolan-2-yl]-5-fluoropyrimidin-2-one] | – | – | show a change in the ISG Score in the spleen and kidney | show a change in the ISG Score in the spleen and kidney | –
Nc1ccn([C@@H]2O[C@@](CO)(CCl)[C@@H](O)[C@@H]2F)c(=O)n1 [Compound 40, 4-amino-1-((2R,3S,4R,5R)-5-(chloromethyl)-3-fluoro-4-hydroxy-5-(hydroxymethyl)tetrahydrofuran-2-yl)pyrimidin-2(1H)-one] | potent inhibition of DAC-induced IFN signal | showed inhibition of IFN-β | show a change in the ISG Score in the spleen and kidney | – | some cell viability losses at higher concentrations
